Data on four compounds can be found in publication PMC13376213, “Systematic discovery of motif-based interactions of the auxiliary domains of USP family deubiquitinases” (Nature Communications, 2026).

The structures appear in SMILES notation. Substitutions are numbered along the chain they refer to. Read-outs that look alike come from different tables or passages of the source. Peptide text beside a SMILES is read from it. * marks the point of attachment. FITC = O=C1OC2(c3ccc(O)cc3Oc3cc(O)ccc32)c2ccc(NC(=S)*)cc21

What all share (assay type): binding
One assay addresses T1, USP20 DUSP2 N805A (Homo sapiens, UniProt Q9Y2K6, N805A).
T1 construct: USP20_DUSP2; Q9Y2K6; DUSP2; 776; 894; 6xHis-GST (N, cleaved yes); made in house; host or cells: Escherichia coli BL21-Gold (DE3)
As to the kind of experiment: FP-monitored affinity measurements, USP20 DUSP2 single mutant. How it is done:
(§1) Proteins were expressed in Escherichia coli (E.coli) BL21-Gold (DE3) bacteria. The cDNAs encoding N-terminal 6-histidine-glutathione S-transferase tagged (6xHis-GST), 6xHis-tagged or GST-tagged protein domains in pETM33, pETM11, pGEX6P1 expression vectors respectively, were obtained from Genescript or kindly provided by MRC-PPU (Suppl. Data 1) The bacteria were transformed with the plasmid and grew at 37 °C in 2YT (5 g/L NaCl, 16 g/L tryptone and 10 g/L yeast extract) supplemented with Kanamycin (30 μg/mL) until reaching an OD600 of 0.7. Protein expression was induced with 0.3 mM isopropyl β-D-1 thiogalactopyranoside (IPTG) for 18 h at 18 °C while shaking. For zinc-finger domains, 50 μM of ZnSO4 was added during expression. […] For fluorescence polarization experiments, the proteins were not eluted from the beads, and the 6xHis-GST tag was cleaved overnight on GSH Sepharose beads at 4 °C while shaking with PreScission Protease in cleavage buffer (50 mM Tris pH 7.5, 150 mM NaCl, 1 mM DTT). […] The purity and size of the proteins were analyzed by SDS-PAGE electrophoresis.
(§2) The measurements were performed at room temperature in a non-binding black half area 96-well plate (Corning) with a total volume of 50 μL per well. […] The data were analyzed using GraphPad Prism version 9.2.0 for MacOS (GraphPad Software, San Diego, California USA, www.graphpad.com). […]

The target of another assay is T2, USP20 DUSP2 K833E-K835E (Homo sapiens, UniProt Q9Y2K6, K833E/K835E).
T2 construct: USP20_DUSP2; Q9Y2K6; DUSP2; 776; 894; 6xHis-GST (N, cleaved yes); made in house; host or cells: Escherichia coli BL21-Gold (DE3)
As to the kind of experiment: FP-monitored affinity measurements, USP20 DUSP2 double mutant. The method, then:
as §1, §2

The target of the next assay is T3, USP33 DUSP2 N835A (Homo sapiens, UniProt Q8TEY7, N835A).
T3 construct: USP33_DUSP2; Q8TEY7; DUSP2; 806; 921; 6xHis-GST (N, cleaved yes); made in house; host or cells: Escherichia coli BL21-Gold (DE3)
T3 sequence (Q8TEY7 806-921 N835A): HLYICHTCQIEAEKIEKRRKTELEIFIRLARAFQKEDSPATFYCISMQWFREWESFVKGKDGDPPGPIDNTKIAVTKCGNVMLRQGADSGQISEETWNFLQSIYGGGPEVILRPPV
As to the kind of experiment: FP-monitored affinity measurements, USP33 DUSP2 single mutant. To be noted: FP, FITC-labeled probe peptide, single mutant domain (Fig. 5F); technical triplicate; read-out: KD, USP33 DUSP2 N835A with FITC-labeled probe peptide. How it is done: as §1, §2

For another assay, the target named is T4, USP33 DUSP2 K863E-K865E (Homo sapiens, UniProt Q8TEY7, K863E/K865E).
T4 construct: USP33_DUSP2; Q8TEY7; DUSP2; 806; 921; 6xHis-GST (N, cleaved yes); made in house; host or cells: Escherichia coli BL21-Gold (DE3)
T4 sequence (Q8TEY7 806-921 K863E/K865E): T3 sequence (Q8TEY7 806-921 N835A) with A30N, K58E, K60E
As to the kind of experiment: FP-monitored affinity measurements, USP33 DUSP2 double mutant. To be noted: FP, FITC-labeled probe peptide, double mutant domain (Fig. 5F); technical triplicate; read-out: KD, USP33 DUSP2 K863E-K865E with FITC-labeled probe peptide. The method, then:
as §1, §2

The next assay addresses T5, USP11 DUSP-UBL domain (Homo sapiens, UniProt P51784).
T5 construct: USP11_UBL; P51784; UBL; 6xHis-GST (N, cleaved yes); made in house; host or cells: Escherichia coli BL21-Gold (DE3)
Description: FP-based affinity measurements, USP11 DUSP-UBL. To be noted: USP11_DUSP_UBL; direct FP titration (saturation) of the FITC-labelled peptide; read-out: KD. How it is done:
(§3) Proteins were expressed in Escherichia coli (E.coli) BL21-Gold (DE3) bacteria. The cDNAs encoding N-terminal 6-histidine-glutathione S-transferase tagged (6xHis-GST), 6xHis-tagged or GST-tagged protein domains in pETM33, pETM11, pGEX6P1 expression vectors respectively, were obtained from Genescript or kindly provided by MRC-PPU (Suppl. Data 1) The bacteria were transformed with the plasmid and grew at 37 °C in 2YT (5 g/L NaCl, 16 g/L tryptone and 10 g/L yeast extract) supplemented with Kanamycin (30 μg/mL) until reaching an OD600 of 0.7. Protein expression was induced with 0.3 mM isopropyl β-D-1 thiogalactopyranoside (IPTG) for 18 h at 18 °C while shaking. For zinc-finger domains, 50 μM of ZnSO4 was added during expression. The bacterial cultures were pelleted for 15 minutes at 4000 x g at 4 °C and stored at −20 °C until purification. The pellets were resuspended in lysis buffer (1× phosphate-buffered saline (PBS), 0.5 % Triton-X, 5 mM MgCl2, 10 μg/mL lysozyme, cOmplete^TM EDTA-free protease inhibitor cocktail (Roche), 10 μg/mL DNAseI) and incubated for 1 h shaking at 4 °C. […] The supernatant was incubated with glutathione (GSH) Sepharose (Cytiva) or Ni2+ Sepharose (Cytiva) for 1 h at 4 °C while shaking. The beads with the bound protein were washed with 1x PBS and eluted with 10 mM reduced glutathione in 50 mM Tris pH 8.0. For fluorescence polarization experiments, the proteins were not eluted from the beads, and the 6xHis-GST tag was cleaved overnight on GSH Sepharose beads at 4 °C while shaking with PreScission Protease in cleavage buffer (50 mM Tris pH 7.5, 150 mM NaCl, 1 mM DTT). The sample containing the cleaved domain was separated from the tag and protease and buffer-exchanged to 50 mM sodium phosphate buffer pH 7.4 with 1 mM DTT using a PD-10 desalting column (Cytiva). The purity and size of the proteins were analyzed by SDS-PAGE electrophoresis.
The measurements were performed at room temperature in a non-binding black half area 96-well plate (Corning) with a total volume of 50 μL per well. Peptides were obtained from GeneCust (France) with >95% purity. FITC-labeled peptides (N-terminally FITC-labeled without spacer and C-terminally amidated) were dissolved in dimethyl sulfoxide (DMSO), and unlabeled peptides (N-terminally acetylated and C-terminally amidated) were dissolved in 50 mM phosphate buffer pH 7.4. Saturation measurements were performed using a serial dilution of the protein domains in phosphate buffer (25 μL) and the addition of 10 nM FITC-labeled peptide (in phosphate buffer supplemented with 2 mM DTT) (25 μL). […] All measurements were performed in three technical replicates. The data were analyzed using GraphPad Prism version 9.2.0 for MacOS (GraphPad Software, San Diego, California USA, www.graphpad.com). […]

The next assay deals with T6, USP20 DUSP2 domain (Homo sapiens, UniProt Q9Y2K6).
T6 construct: USP20_DUSP2; Q9Y2K6; DUSP2; 776; 894; 6xHis-GST (N, cleaved yes); made in house; host or cells: Escherichia coli BL21-Gold (DE3)
As to the kind of experiment: FP-monitored affinity measurements, USP20 DUSP2. To be noted: USP20_DUSP2; direct FP titration (saturation) of the FITC-labelled peptide; read-out: KD. How it is done:
as §3
The measurements were performed at room temperature in a non-binding black half area 96-well plate (Corning) with a total volume of 50 μL per well. Peptides were obtained from GeneCust (France) with >95% purity. FITC-labeled peptides (N-terminally FITC-labeled without spacer and C-terminally amidated) were dissolved in dimethyl sulfoxide (DMSO), and unlabeled peptides (N-terminally acetylated and C-terminally amidated) were dissolved in 50 mM phosphate buffer pH 7.4. Saturation measurements were performed using a serial dilution of the protein domains in phosphate buffer (25 μL) and the addition of 10 nM FITC-labeled peptide (in phosphate buffer supplemented with 2 mM DTT) (25 μL). […] All measurements were performed in three technical replicates. The data were analyzed using GraphPad Prism version 9.2.0 for MacOS (GraphPad Software, San Diego, California USA, www.graphpad.com). The saturation curves were fitted to the quadratic equation, and the displacement curves were fitted to a sigmoidal dose-response equation as described previously.

T1 sequence (Q9Y2K6 with tags, fused parts or gaps N805A): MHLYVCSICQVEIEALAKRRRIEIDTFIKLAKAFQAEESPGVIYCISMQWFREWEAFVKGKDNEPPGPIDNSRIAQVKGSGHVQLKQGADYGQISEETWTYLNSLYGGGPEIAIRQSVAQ
T2 sequence (Q9Y2K6 with tags, fused parts or gaps K833E/K835E): as the sequence (Q9Y2K6 with tags, fused parts or gaps N805A) above, with A31N, K59E, K61E counted along it
T5 sequence (P51784 67-288): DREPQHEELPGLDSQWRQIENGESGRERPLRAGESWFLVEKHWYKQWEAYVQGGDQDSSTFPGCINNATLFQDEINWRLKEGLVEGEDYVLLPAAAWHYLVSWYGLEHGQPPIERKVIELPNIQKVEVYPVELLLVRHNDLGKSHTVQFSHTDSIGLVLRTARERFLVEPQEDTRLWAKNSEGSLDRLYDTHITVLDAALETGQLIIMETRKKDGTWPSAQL
T6 sequence (Q9Y2K6 with tags, fused parts or gaps): as the sequence (Q9Y2K6 with tags, fused parts or gaps N805A) above, with A31N counted along it

As usually defined, the Kd is the free concentration of one partner at which half of the binding sites on the other are occupied at equilibrium, for simple one-to-one binding. Consider `CC[C@H](C)[C@H](NC(=O)[C@H](CC(N)=O)NC(=O)[C@H](Cc1c[nH]c2ccccc12)NC(=O)[C@H](C)NC(=O)[C@H](CC(C)C)NC(=O)[C@H](CC(=O)O)NC(=O)[C@H](CC(=O)O)NC(=O)[C@H](CC(=O)O)NC(=O)[C@H](CO)NC(=S)Nc1ccc2c(c1)C(=O)OC21c2ccc(O)cc2Oc2cc(O)ccc21)C(=O)N[C@@H](C)C(=O)N1CCC[C@H]1C(=O)N[C@@H](CCC(N)=O)C(=O)NCC(=O)N[C@@H](CC(C)C)C(=O)N[C@@H](CCC(N)=O)C(N)=O` [FITC-GPR137B348-362] ({FITC}-SDDDLAWNIAPQGLQ-NH2), for which the Kd was above 130 µM at USP20 DUSP2 N805A (FP, FITC-labeled probe peptide, single mutant domain (Fig. 5F), technical triplicate, read-out: KD, USP20 DUSP2 N805A with FITC-labeled probe peptide) and above 290 µM on USP20 DUSP2 K833E-K835E (FP, FITC-labeled probe peptide, double mutant domain (Fig. 5F), technical triplicate, read-out: KD, USP20 DUSP2 K833E-K835E with FITC-labeled probe peptide).
As for `CSCC[C@H](NC(=S)Nc1ccc2c(c1)C(=O)OC21c2ccc(O)cc2Oc2cc(O)ccc21)C(=O)N[C@@H](CC(=O)O)C(=O)N[C@@H](CC(=O)O)C(=O)N[C@@H](CC(=O)O)C(=O)N[C@@H](Cc1ccccc1)C(=O)N[C@@H](CCC(N)=O)C(=O)N[C@@H](CC(C)C)C(=O)N[C@@H](CCCNC(=N)N)C(=O)N[C@@H](CO)C(=O)N[C@@H](Cc1ccccc1)C(=O)N[C@@H](CC(=O)O)C(=O)N[C@@H](CCC(N)=O)C(=O)N[C@@H](CC(C)C)C(=O)N[C@@H](CO)C(N)=O` [FITC-HIF1A568-581] ({FITC}-MDDDFQLRSFDQLS-NH2), the Kd on USP33 DUSP2 N835A and on USP33 DUSP2 K863E-K865E was above 300 µM in each case.
Regarding `CC[C@H](C)[C@H](NC(=O)[C@H](Cc1c[nH]c2ccccc12)NC(=O)[C@H](CC(=O)O)NC(=O)[C@@H]1CCCN1C(=O)[C@H](Cc1ccc(O)cc1)NC(=O)[C@@H](NC(=O)[C@@H](NC(=O)[C@H](C)NC(=O)[C@H](CO)NC(=S)Nc1ccc2c(c1)C(=O)OC21c2ccc(O)cc2Oc2cc(O)ccc21)C(C)C)[C@@H](C)O)C(=O)NCC(=O)N[C@@H](CCC(N)=O)C(=O)N[C@@H](CO)C(=O)N[C@@H](Cc1ccc(O)cc1)C(=O)N[C@@H](CO)C(=O)N[C@@H](CCC(=O)O)C(=O)N[C@H](C(N)=O)C(C)C` [FITC-ORAI1] ({FITC}-SAVTYPDWIGQSYSEV-NH2), the dissociation constant Kd on USP11 DUSP-UBL domain is around 294 µM.
`CC[C@H](C)[C@H](NC(=O)[C@H](CC(N)=O)NC(=O)[C@H](Cc1c[nH]c2ccccc12)NC(=O)[C@H](C)NC(=O)[C@H](CC(C)C)NC(=O)[C@H](CC(=O)O)NC(=O)[C@H](CC(=O)O)NC(=O)[C@H](CC(=O)O)NC(=O)[C@H](CO)NC(=S)Nc1ccc2c(c1)C(=O)OC21c2ccc(O)cc2Oc2cc(O)ccc21)C(=O)N[C@@H](C)C(=O)N1CCC[C@H]1C(=O)N[C@@H](CCC(N)=O)C(=O)NCC(=O)N[C@@H](CC(C)C)C(=O)N[C@@H](CCC(N)=O)C(N)=O` [FITC_GPR137B] ({FITC}-SDDDLAWNIAPQGLQ-NH2): the dissociation constant Kd on USP20 DUSP2 domain is 5.14 µM; at USP20 DUSP2 N805A (USP20_DUSP2_N805A, direct FP titration (saturation) of the FITC-labelled peptide, read-out: KD), around 140 µM; at USP20 DUSP2 K833E-K835E (USP20_DUSP2_K833E/K835E, direct FP titration (saturation) of the FITC-labelled peptide, read-out: KD) it was around 293 µM.
